Measured values: patent US8057990B2, “Screening method” (Takeda Pharmaceutical Company Limited, priority 2005, dated 2011)

Key:
rat GPR30 = rat GPR30 (Rattus norvegicus, UniProt O08878, S320N); conditions: rat GPR30 expression CHO cells; tacrine 0.67-67 μM; Fluo 3-AM
Experimental: The plasmid pAK-rGPR30 was transduced by electroporation into CHO/dhfr^− cells (American Type Culture Collection) in the method described in REFERENCE EXAMPLE 1, and transformed CHO cells expressing rat GPR30 (hereinafter, referred to simply as “rat GPR30 cells”) at a high ratio were selected.
200 μl of each type of cells was planted in each well of a 96-well plate for FLIPR (Black plate clear bottom, Coster) using an 8-channel pipette (3.0×10^4 cells/200 μl/well) and cultured in a 5% CO2 incubator at 37° C. overnight (hereinafter, referred to as the “cell plate”) before use. 20 ml of H/HBSS, 200 μl of 250 mM Probenecid, and 200 μl of fetal bovine serum (FBS) were mixed. 2 vials (50 μg) of Fluo 3-AM (Dojindo Laboratories) were lysed in […] of dimethylsulfoxide and 40 μl of 20% Pluronic acid (Molecular Probes), and the resultant substance was added to H/HBSS-Probenecid-FBS and mixed. […] The cell plate and the sample plate were set in an FLIPR (501 of sample was transferred from the sample plate to the cell plate by the FLIPR), and a change of the fluorescent intensity was measured over-time. Thus, the intracellular calcium ion concentration increase activity was measured.

human GPR30 [1] = molecular target: T1, human GPR30 (Homo sapiens, UniProt Q99527, P21A/Q20H); conditions: human GPR30 expression CHO cells; tacrine 0.67-67 μM; Fluo 3-AM
Experimental: 200 μl of each type of cells was planted in each well of a 96-well plate for FLIPR (Black plate clear bottom, Coster) using an 8-channel pipette (3.0×10^4 cells/200 μl/well) and cultured in a 5% CO2 incubator at 37° C. overnight (hereinafter, referred to as the “cell plate”) before use. 20 ml of H/HBSS, 200 μl of 250 mM Probenecid, and 200 μl of fetal bovine serum (FBS) were mixed. 2 vials (50 μg) of Fluo 3-AM (Dojindo Laboratories) were lysed in […] of dimethylsulfoxide and 40 μl of 20% Pluronic acid (Molecular Probes), and the resultant substance was added to H/HBSS-Probenecid-FBS and mixed. Then, the resultant mixture was divided into units of 100 μl and put to each well of the cell plate deprived of the culture fluid using an 8-channel pipette, and incubated in a 5% CO2 incubator at 37° C. for 1 hour (colorant loading). 8 μl of a tacrine solution (Aldrich Chemical Company) of various concentrations was added to 259 μl of H/HBSS containing 2.5 mM Probenecid, 0.1% CHAPS and 0.1% BSA, and diluted. […] The cell plate and the sample plate were set in an FLIPR (501 of sample was transferred from the sample plate to the cell plate by the FLIPR), and a change of the fluorescent intensity was measured over-time. Thus, the intracellular calcium ion concentration increase activity was measured.

[2] = tested on: HeLa cells not expressing human GPR30; conditions: pAKKO-1.11H-transfected control HeLa cells; tacrine 100 μM; 4 hours
Experimental: (§1) Separately, a reporter plasmid of pSRE-Luc (Invitrogen) ligated with a luciferase gene as a reporter at a downstream position of a serum response element (SRE), and expression vector plasmids for human GαoA, human Gβ1 and human Gγ2, which are each a kind of G proteins, were prepared in substantially the same manner. HeLa cells were used as host cells for transfecting the G protein-coupled receptor protein expression plasmid pAK-hGPR30 and the reporter plasmids. The cells were planted on a 384-well assay plate (COSTAR 3704) at a ratio of 4000 cells/well in a culture volume of 25 μl, and incubated overnight. As the medium, DMEM (Invitrogen) supplemented with 10% fetal bovine serum and 1% MEM non-essential amino acids solution (DMEM/NEAA) was used. Each plasmid was diluted to a concentration of 240 ng/μl. Plasmids were added to 250 μl of Opti-MEM-I (Invitrogen) at a ratio of 1 μl of pAK-hGPR30, 9 μl of the reporter plasmid, and 1 μl of each of the G protein expression plasmids for GαoA, Gβ1 and Gγ2. […] After the cells were lysed and thoroughly mixed with the substrate, the chemiluminescence level corresponding to the expression induction level of the reporter gene in each well was measured on a plate reader (EnVision™, Perkin Elmer).

human GPR30 [3] = molecular target: T1, human GPR30; conditions: GPR30 expression HeLa cells; tacrine 100 μM; 4 hours
Experimental: as §1

T1 sequence (Q99527 whole entry Q20H/P21A): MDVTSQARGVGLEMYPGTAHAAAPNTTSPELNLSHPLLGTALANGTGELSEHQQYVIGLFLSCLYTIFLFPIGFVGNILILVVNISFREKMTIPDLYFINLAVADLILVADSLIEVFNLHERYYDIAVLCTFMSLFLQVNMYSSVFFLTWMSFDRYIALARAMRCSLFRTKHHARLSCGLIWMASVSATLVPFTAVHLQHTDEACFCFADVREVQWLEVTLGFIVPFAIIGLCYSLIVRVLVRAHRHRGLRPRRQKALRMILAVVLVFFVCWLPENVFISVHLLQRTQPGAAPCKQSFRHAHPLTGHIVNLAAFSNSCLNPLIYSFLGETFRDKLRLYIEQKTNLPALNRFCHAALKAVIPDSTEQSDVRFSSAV
Sequence of rat GPR30 (O08878 whole entry S320N): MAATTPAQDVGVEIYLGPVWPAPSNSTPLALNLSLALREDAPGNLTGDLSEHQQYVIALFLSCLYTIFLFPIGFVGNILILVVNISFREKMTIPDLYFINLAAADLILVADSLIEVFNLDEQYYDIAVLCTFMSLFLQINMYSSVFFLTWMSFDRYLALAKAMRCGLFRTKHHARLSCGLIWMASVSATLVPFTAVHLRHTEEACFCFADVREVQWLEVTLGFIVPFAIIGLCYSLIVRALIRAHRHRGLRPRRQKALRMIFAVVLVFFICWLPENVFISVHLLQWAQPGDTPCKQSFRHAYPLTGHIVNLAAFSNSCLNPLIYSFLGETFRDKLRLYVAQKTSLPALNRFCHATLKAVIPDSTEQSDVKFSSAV

- luciferase activity (pSRE-Luc reporter) (human GPR30 [3]): significant increase
SMILES: Nc1c2c(nc3ccccc13)CCCC2 [tacrine, 1,2,3,4-tetrahydro-9-acridinamine]
- intracellular calcium ion concentration (change of fluorescent intensity, FLIPR) (rat GPR30): increased in a concentration-depending manner
- intracellular calcium ion concentration (change of fluorescent intensity, FLIPR) (human GPR30 [1]): increased in a concentration-depending manner
- luciferase activity (pSRE-Luc reporter) [2]: no significant activity increase
